Results: PubChem BioAssay (NCI)
Where “and” joins values, the source holds several entries; their conditions need not be identical. Identical values can stand only once.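 Results reflect a 48-hour exposure of cells in 96-well plates to compound at five concentrations. GI50 = concentration required for 50% inhibition of growth. At the TGI there is no net growth.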

Experiments:
Test in all cases: DTP human tumour cell line panel, 48 h
[1] = tested on: HT29 colon
[2] = tested on: MDA-MB-231 breast
[3] = tested on: MOLT-4 leukemia
[4] = tested on: OVCAR-3 ovarian
[5] = tested on: OVCAR-8 ovarian
[6] = tested on: SNB-75 CNS
[7] = tested on: T-47D breast
[8] = tested on: U251 CNS
[9] = tested on: HL-60(TB) leukemia
[10] = tested on: SK-OV-3 ovarian

Row | Structure (SMILES) | TGI [1] | GI50 [2] | TGI [2] | GI50 [3] | TGI [4] | TGI [5] | TGI [6] | GI50 [7] | TGI [7] | TGI [8] | GI50 [9] | TGI [9] | GI50 [1] | TGI [3] | GI50 [5] | GI50 [10] | TGI [10] | GI50 [6] | GI50 [8] | GI50 [4]
1 | Nc1ccn([C@@H]2C=C(CO)[C@@H](O)[C@H]2O)c(=O)n1 | 394 µM and > 625 µM | 0.413 µM | 500 µM | 0.0171 µM | 500 µM and > 625 µM | 67 µM and > 625 µM | 128 µM and > 625 µM | 0.581 µM | 261 µM | 500 µM and > 625 µM | – | – | – | – | – | – | – | – | – | –
2 | CC1(C)C2CCC13C(=O)C1OC3(C2)C2C(=O)c3c(O)ccc(O)c3C(=O)C12 (configuration not stated) | > 83.4 µM | 44.2 µM | > 70.3 µM | 5.93 µM | – | > 93.9 µM | > 69.3 µM | 36.7 µM | > 64.8 µM | 96.9 µM | 10.6 µM | > 50.2 µM | 34.1 µM | > 46.6 µM | 47.2 µM | 42.2 µM | > 100 µM | > 44.4 µM | 44.4 µM | –
3 | Cc1cc(C)n(-c2c(O)ccc(O)c2-n2nc(C)cc2C)n1 | > 100 µM | – | – | – | > 100 µM | > 100 µM | > 100 µM | – | – | > 100 µM | – | > 100 µM | – | > 100 µM | – | – | > 100 µM | – | – | –
4 | CC(=O)Nc1ccc(/C=C/C(=O)c2sc(C(N)=S)nc2C)cc1 | > 100 µM | – | – | – | > 100 µM | > 100 µM | > 100 µM | – | – | > 100 µM | – | > 100 µM | – | > 100 µM | – | – | > 100 µM | – | – | –
5 | CNC1C(O)CC(OC2C/C=C(\C)C/C(C)=C/C=C/CCC(C)CNC(=O)/C=C/C=C/C2C)OC1C (configuration not stated) | 0.504 µM | – | 2.91 µM | – | 1.78 µM | 1.18 µM | 2.91 µM | – | 3.18 µM | 1.03 µM | – | 0.37 µM | – | – | – | – | 3.27 µM | – | – | –
6 | Cn1c2cccc3nnc4cccc(c4c32)n1C | > 100 µM | – | – | – | > 100 µM | > 100 µM | – | – | – | > 100 µM | – | > 100 µM | – | > 100 µM | – | – | – | – | – | –
7 | Clc1ccc(CO/N=C(\Cn2ccnc2)c2ccc(Cl)cc2Cl)c(Cl)c1 | 3.33 µM | 1.32 µM | 2.75 µM | 2.19 µM | 3.12 µM | – | 3.22 µM | 1.77 µM | 3.36 µM | 2.94 µM | 2.08 µM | 4.62 µM | 1.65 µM | 4.94 µM | – | 1.8 µM | 3.18 µM | 1.65 µM | 1.51 µM | 1.66 µM
8 | COC(=O)C1=CC2OC1(C)C1(CC1)C2=O (configuration not stated) | 25.5 µM | – | – | – | 31.2 µM | 31.3 µM | 50 µM | – | – | > 100 µM | – | 16.1 µM | – | 27.2 µM | – | – | > 100 µM | – | – | –
9 | O=C1c2ccccc2C(=O)c2nc(-c3ccccc3)c(-c3ccccc3)nc21 | > 100 µM | – | – | – | 13.2 µM | > 100 µM | 29.2 µM | – | – | > 100 µM | – | – | – | > 100 µM | – | – | > 100 µM | – | – | –
10 | COC(=O)C(=O)C(C(=O)C(=O)Nc1cc([N+](=O)[O-])ccc1[N+](=O)[O-])c1nc2ccc(C(=O)c3ccccc3)cc2[nH]c1=O (configuration not stated) | > 100 µM | – | – | – | > 100 µM | > 100 µM | – | – | – | > 100 µM | – | – | – | 61.5 µM | – | – | > 100 µM | – | – | –
11 | CCC(=C(c1ccc(OCc2ccccc2)cc1)c1ccc(OCc2ccccc2)cc1)c1ccc(OC)cc1 | > 100 µM | – | – | – | > 100 µM | > 100 µM | > 100 µM | – | – | > 100 µM | – | > 100 µM | – | > 100 µM | – | – | > 100 µM | – | – | –
12 | Cc1ccc(S(=O)(=O)N/N=C(\C(=O)Nc2cccc([N+](=O)[O-])c2)c2nc3ccc([N+](=O)[O-])cc3[nH]c2=O)cc1 | > 100 µM | – | – | – | > 100 µM | > 100 µM | – | – | – | > 100 µM | – | – | – | > 100 µM | – | – | > 100 µM | – | – | –
13 | COc1ccc(OC)c2cc(C3(C)SCCCS3)ccc12 | > 100 µM | – | – | – | > 100 µM | > 100 µM | > 100 µM | – | – | > 100 µM | – | > 100 µM | – | > 100 µM | – | – | > 100 µM | – | – | –
14 | CC(=O)OCC1OC(S[As](C)C)C(OC(C)=O)C1OC(C)=O (configuration not stated) | – | 0.404 µM | 2.34 µM | 0.177 µM | 0.151 µM | 1.57 µM | 1.99 µM | 0.62 µM | 17.3 µM | 2.72 µM | 0.0813 µM | 0.648 µM | – | 0.765 µM | 0.272 µM | 1.14 µM | 7.71 µM | 0.511 µM | 0.546 µM | 0.0391 µM
15 | CC1C(=O)N(C)C2(CO)C(=O)O[C@H](C)C12O (some centres not stated) | > 100 µM | – | – | – | > 100 µM | > 100 µM | – | – | – | > 100 µM | – | – | – | > 100 µM | – | – | > 100 µM | – | – | –
16 | Cc1ccc2[nH]c(=O)c(C(C#N)c3ccccc3)nc2c1 (configuration not stated) | > 100 µM | – | – | – | > 100 µM | – | > 100 µM | – | – | 84.5 µM | – | – | – | > 100 µM | – | – | > 100 µM | – | – | –
17 | COC(=O)c1c2c(c(C)[n+]([O-])c1C)C(=O)C(NCc1ccc(F)c(F)c1)=CC2=O | 7.61 µM | 1.75 µM | 6.09 µM | 2.44 µM | 1.09 µM | 7.97 µM | 7.58 µM | 1.75 µM | 4.33 µM | 5.85 µM | 1.86 µM | 4.4 µM | 1.15 µM | 4.86 µM | 1.96 µM | – | – | 2.15 µM | 2.06 µM | 0.333 µM
18 | CCOC(=O)C1=C(C)N(NC(=O)c2ccccc2)C2(O)CCCC12C(=O)OCC (configuration not stated) | > 100 µM | – | – | – | > 100 µM | > 100 µM | > 100 µM | – | – | > 100 µM | – | > 100 µM | – | > 100 µM | – | – | > 100 µM | – | – | –
19 | CC1C2=CC=C(O2)C(C)(C)C2=CC=C(O2)C(C)(C)C2=CC=C(O2)C(C)(C)C2=CC=C1O2 | > 100 µM | – | – | – | – | > 100 µM | – | – | – | > 100 µM | – | > 100 µM | – | > 100 µM | – | – | > 100 µM | – | – | –
20 | Cc1ccc(C2=NO[C@@H]3C(=O)N(c4ccc(Cc5ccc(N6C(=O)[C@H]7C(c8ccc(C)cc8)=NO[C@H]7C6=O)cc5)cc4)C(=O)[C@H]23)cc1 | > 100 µM | – | – | – | > 100 µM | > 100 µM | > 100 µM | – | – | > 100 µM | – | > 100 µM | – | – | – | – | > 100 µM | – | – | –
21 | O=C(NCC#CCO)C(F)(F)F | > 100 µM | – | – | – | – | > 100 µM | – | – | – | > 100 µM | – | – | – | > 100 µM | – | – | > 100 µM | – | – | –
22 | O=C(CC1(O)C(=O)Nc2c(Cl)cc(Cl)cc21)c1ccc2ccccc2c1 (configuration not stated) | 18.5 µM | – | – | – | 18.6 µM | 26 µM | 13.5 µM | – | – | 18.7 µM | – | 14.6 µM | – | 27.8 µM | – | – | 24.6 µM | – | – | –
